In patent publication US20140079778A1, “Pharmaceutical Formulations Including An Amine Compound” (AstraZeneca UK Limited, priority 2011, published 2014):
Like-named read-outs stand apart in the source and are kept apart here.

How the values were obtained:
[1] = Saxagliptin Hydrochloride/Opadry II films, amino acid 2% w/w in dispersion, 60° C. five days; control without amine 2.73
[2] = Example 6: NFA of saxagliptin in saxagliptin/Opadry II films with amino acids (HPLC); type: physicochemical; settings: for % NFA (as a % of saxagliptin peak): Saxagliptin/Opadry II films, amino acid 2% w/w in dispersion, sealed vials 60° C. five days, control without amine 2.63
[3] = type: physicochemical; settings: Saxagliptin Hydrochloride/Opadry II films, amine 2% w/w in dispersion, 60° C. five days; control without amine 2.73
[4] = Example 4: NFA of saxagliptin in saxagliptin/Opadry II films with amine compounds (HPLC); type: physicochemical; settings: amine 2% w/w in dispersion, sealed vials 60° C. five days, control without amine 2.63

| SMILES | % NFA (as a % of saxagliptin peak) [1] | % NFA (as a % of saxagliptin peak) [2] | extraneous peaks in the chromatogram ([2]; saxagliptin and saxagliptin hydrochloride Opadry II films, HPLC) | % NFA (as a % of saxagliptin peak) [3] | % NFA (as a % of saxagliptin peak) [4] | protecting saxagliptin from reaction with formyl species (rank among amino acids) ([2]; saxagliptin and saxagliptin hydrochloride Opadry II films) |
| --- | --- | --- | --- | --- | --- | --- |
| N=C(N)NCCC[C@H](N)C(=O)O [Arginine, arginine] | 0% | 0% | formation of extraneous unidentified peaks | – | – | – |
| OCCNCCO [Diethanolamine, diethanolamine] | – | – | – | 0.62% | 3.61% | – |
| NCCO [Ethanolamine, ethanolamine] | – | – | – | 0% | 0% | – |
| NCC(=O)O [Glycine, glycine] | 0% | 0% | – | – | – | most potent |
| N[C@@H](Cc1c[nH]cn1)C(=O)O [Histidine, histidine] | – | 1.68% | – | – | – | – |
| NCCCC[C@H](N)C(=O)O [Lysine, lysine] | 2.08% | 2.84% | – | – | – | – |
